Results from patent US20220119399A1, “COMPOUNDS AND COMPOSITIONS THAT CAUSE MYCN AND/OR CMYC DEGRADATION AND METHODS OF USE THEREOF” (THE TRUSTEES OF COLUMBIA UNIVERSITY IN THE CITY OF NEW YORK, priority 2018, published 2022).
“Also recorded” adds a separate entry of the source. Where a SMILES comes first, the peptide text is derived from it. The star is where a group is joined. Cbz = O=C(OCc1ccccc1)*

Experiments:
[1] = Metabolic stability in mouse liver microsomes; assay type: in vitro ADME; details: 2 h incubation, positive control
Experimental: Mouse liver microsomes (Xenotech) were diluted to 0.5 mg/mL in a solution containing 100 mM PBS buffer at 7.4 pH, an NADPH regenerating system (Promega), and test compounds at 20 μM. The mixture was incubated at 37° C. under gentle rotation for the indicated time points. The reaction was quenched by aliquoting 15 μL of solution into 60 μL ice-cold acetonitrile containing an internal standard. Test compounds were quantified by LC-MS using a system comprised of a Thermo Scientific Dionex Ultimate 3000 and a Bruker amaZon SL equipped with an electrospray ionization source controlled by a Bruker Hystar 3.2. Compounds were separated by injecting 20 μL of sample onto an Agilent Eclipse Plus C18 column (2.1×50 mm, […]) maintained at 20° C., with the flow rate set at 400 μL/min. Initial flow conditions were 60% solvent A (MilliQ H2O, 0.1% acetic acid), and 40% solvent B (HPLC-grade MeOH, 0.1% acetic acid). Solvent B was raised to 60% over 0.25 min and to 70% by 6.75 min. Solvent B was raised to 95% by 7 min and lowered back to 40% by 8 minutes; total run time was 9 min.

SK-N-Be2 cells [2] = assay: Cell viability assay (CellTiterGlo) in SK-N-Be2 cells; assay type: cell-based, human; details: for IC20: determined empirically
[3] = test system: Histone H3 phosphorylation; assay: Histone H3 phosphorylation western blot; assay type: cell-based; details: 1 μM
From the text: Membranes were blocked using Odyssey Blocking Buffer (LI-COR) for 1 hr at room temperature. […] Primary antibodies used in these studies include: MycN (CST; 1:500 dilution), Actin (SCBT; 1:2000 dil.), cMYC (CST; 1:500 dil.), pAKT (S473; CST; 1:500 dil.), AKT (CST; 1:2000), pP70 (T389; CST; 1:1000) P70 (CST; 1:1000).
We also compared the potency of these drugs against a recently developed AurKA inhibitor that acts by disrupting protein confirmation rather than simply blocking the protein:protein interaction site as alisertib does.

CK2a1 = biological target: T1, CK2a1 (Homo sapiens, UniProt P68400); assay: Cell-free biochemical CK2a1 kinase assay
T1 construct: purchased Reaction Biology Corporation (Malvern, Pa.)
T1 sequence (P68400 whole entry): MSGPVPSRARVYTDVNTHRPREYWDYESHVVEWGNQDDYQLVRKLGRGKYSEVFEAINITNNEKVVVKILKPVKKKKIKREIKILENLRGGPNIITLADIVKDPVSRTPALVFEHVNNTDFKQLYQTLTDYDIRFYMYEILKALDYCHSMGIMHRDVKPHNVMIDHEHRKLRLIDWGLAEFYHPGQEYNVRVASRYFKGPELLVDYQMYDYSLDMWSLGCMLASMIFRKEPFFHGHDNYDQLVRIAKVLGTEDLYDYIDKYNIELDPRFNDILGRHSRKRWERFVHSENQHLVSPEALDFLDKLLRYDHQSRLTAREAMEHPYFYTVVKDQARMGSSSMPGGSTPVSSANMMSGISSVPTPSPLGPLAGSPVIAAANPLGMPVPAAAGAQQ
Experimental: Cell-free biochemical kinase assays were performed at Reaction Biology Corporation (Malvern, Pa.). In brief, kinase substrates were diluted into reaction buffer containing 20 mM Hepes (pH 7.5), 10 mM MgCl2, 1 mM EGTA, 0.02% Brij35, 0.02 mg/ml BSA, 0.1 mM Na3VO4, 2 mM DTT, 1% DMSO. Purified protein (CK2a1, CK2a2, or mTOR) was added to the substrate solution and gently mixed. Test compounds were diluted from 10 mM DMSO stock solutions into the reaction buffer using an Echo550 acoustic dispenser, followed by incubation at RT for 20 min. 33P-ATP (10 μCi/μL) was added to reaction mixture, following incubation for 2 h at RT. Reactions were then spotted onto P81 ion exchange paper and kinase activity was detected by filter binding method.

SK-N-Be2 cells [4] = assay type: in vitro ADME, human
Experimental: In brief, SK-N-Be2 cells were seeded at 400 k cells/well in 6 w plates and incubated overnight. The following day, compounds were added to wells at indicated concentrations, with DMSO-only control added to non-treated wells. Following treatment for the indicated time periods, cells were trypsinized, rinsed twice with cold PBS to remove media, pelleted by centrifugation, and frozen at −20° C. To extract compounds, frozen pellets were resuspended in 150 μL of acetonitrile, sonicated for 2′, and centrifuged at 1400×g for 75′ at 4° C. Supernatant was collected and analyzed by LC-MS using a system comprised of a Thermo Scientific Dionex Ultimate 3000 and a Bruker amaZon SL equipped with an electrospray ionization source controlled by a Bruker Hystar 3.2. Compounds were separated by injecting 20 μL of supernatant onto an Agilent Eclipse Plus C18 column (2.1×50 mm, […]) maintained at 20° C., with the flow rate set at 400 μL/min. Initial flow conditions were 60% solvent A (MilliQ H2O, 0.1% acetic acid), and 40% solvent B (HPLC-grade MeOH, 0.1% acetic acid). Solvent B was raised to 60% over 0.25 min and to 70% by 6.75 min. Solvent B was raised to 95% by 7 min and lowered back to 40% by 8 minutes; total run time was 9 min (Bos et al. 2019).

mutant isoform of CK2a1 = assay: Cell viability after expression of mutant CK2a1 isoform; details: versus GFP-expressing plasmid
[5] = test system: MycN^AMP regulatory module (Master Regulators, TCM); assay: PLATE-Seq with VIPER analysis: reversion of the MycN^AMP master regulator module; assay type: cell-based, human; details: SK-N-Be2 cells, IC20, 24 hrs
From the text: Reads were mapped against the human reference genome version Grch38 using the STAR aligner, and used the variance stabilizing transformation from the DESeq2 package for R to normalize each plate. Next, we corrected for batch effect due to having compounds replicates on separate plates. We used the function combat from the sva package for R to compute the batch-corrected normalized gene expression, and fitted a linear model for each compound against the set of DMSO controls on each plate (6 wells per plate per DMSO-treated cells). We used the limma package for R to fit the linear model and to compute p-values and moderated t-statistics for each gene. For each compound, we used a vector of these statistics to generate a gene expression profile of z-scores representing the compound effect as differential between post- and pre-treatment.
Each compound gene expression profile was analyzed using the VIPER algorithm (Alvarez et al. 2016) with TARGET and NRC NBL interactomes, reverse-engineered as described in (Rajbhandari et al. 2018), resulting in two protein activity profiles for each compound that were integrated using Stouffer's z-score method.

MYCN MR signature = assay: RNASeq with VIPER analysis of the MYCN MR signature; assay type: cell-based, human; details: SK-N-Be2 cells; listed as dimethyl pomiferin
Experimental: (§1) To uncover changes in gene expression that underpin responses to pomiferin and isopomiferin, RNASeq analysis of SK-N-Be2 cells was performed following treatment with the two active prenylated isoflavonoids as well as a null analog that served as a negative control. SK-N-Be2 cells were treated with either 3 μM or 10 μM of isopomiferin or pomiferin and sampled after 3 h and 6 h. […] By comparing the active to the null analogs, downstream analyses can focus on changes in gene expression associated with the MYCN signature.
Intriguingly, only six MRs were suppressed by pomiferin and isopomiferin, while being unaffected by the null analog dimethyl pomiferin (FIG. 20B).

TEAD4 transcript = assay: RNASeq analysis of SK-N-Be2 cells, TEAD4 transcript; assay type: cell-based, human; details: 3 μM or 10 μM, 3 h and 6 h
Experimental: as §1

MYCN transcript = assay: RNASeq analysis of SK-N-Be2 cells, MYCN transcript; assay type: cell-based, human; details: 3 μM or 10 μM, 3 h and 6 h
Experimental: as §1

mTOR = mTOR (Homo sapiens, UniProt P42345); details: Bajer et al. 2014; cited from earlier work
[6] = Homo sapiens, SKNBE2, SK-N-Be2 cells

CCOc1ccc2ccc(=O)oc2c1 [7-ethoxycoumarin, reference compound]
metabolism by mouse liver microsomes [1]: metabolized across the duration of the assay

CN(C)c1ccc2nc3ccc(N)cc3[s+]c2c1.[Cl-] [Azure A]
IC20 (SK-N-Be2 cells [2]; SK-N-Be2 cells): 1000 nM
Histone H3 phosphorylation [3]: inhibit Histone H3 phosphorylation

O=C(O)c1ccc2c(c1)nc(Nc1cccc(Cl)c1)c1ccncc12 [CX-4945]
CK2a1 kinase activity (CK2a1): completely inhibited kinase activity of CK2a at all concentrations tested
cell permeability (SK-N-Be2 cells [4]): poor cell permeability
amount of compound detected in cell sample (SK-N-Be2 cells [4]; human, 20 μM): 2.2 ng
resistance conferred by mutant CK2 isoform (mutant isoform of CK2a1): modest resistance

Oc1ccc(Cl)c2cccnc12 [Cloxyquin]
IC20 (SK-N-Be2 cells [2]; [6]): 5000 nM

CC(C)C[C@@H](C=O)NC(=O)[C@H](CC(C)C)NC(=O)[C@H](CC(C)C)NC(=O)OCc1ccccc1 [MG132] (Cbz-Leu-Leu-Leu-aldehyde)
resistance conferred by mutant CK2 isoform (mutant isoform of CK2a1): no resistance was conferred by the plasmid

CN(C)c1ccc2nc3ccc(=[N+](C)C)cc-3sc2c1 [Methylene Blue]
IC20 (SK-N-Be2 cells [2]; [6]): 2000 nM
Histone H3 phosphorylation [3]: inhibit Histone H3 phosphorylation

COc1c(C)c2c(c(O)c1C/C=C(\C)CCC(=O)O)C(=O)OC2 [Mycophenolic acid]
IC20 (SK-N-Be2 cells [2]; [6]): 2500 nM

c1ccc(-c2cccc(-c3ccccn3)n2)nc1 [NSC3905]
IC20 (SK-N-Be2 cells [2]; SK-N-Be2 cells): 3000 nM

CC(=O)[C@@]1(O)[C@H](C)C[C@H]2[C@@H]3C=C(C)C4=Cc5c(cnn5-c5ccccc5)C[C@]4(C)[C@H]3[C@@H](O)C[C@@]21C [NSC80997]
IC20 (SK-N-Be2 cells [2]; SK-N-Be2 cells): 7500 nM

CO[C@H]1/C=C\C=C(/C)C(=O)NC2=CC(=O)C(N)=C(C[C@@H](C)C[C@H](OC)[C@H](O)[C@@H](C)/C=C(\C)[C@@H]1OC(N)=O)C2=O [NSC255109]
IC20 (SK-N-Be2 cells [2]; SK-N-Be2 cells): 2500 nM

OC(c1cc(-c2ccc(C(F)(F)F)cc2)nc(C(F)(F)F)c1)C1CCCCN1 (stereo not shown) [NSC305798]
IC20 (SK-N-Be2 cells [2]; SK-N-Be2 cells): 5000 nM

CC[C@@H](C(=O)O)[C@@H]1O[C@@H]([C@@H](C)[C@H](O)[C@H](C)C(=O)[C@H](CC)[C@H]2O[C@]3(C=C[C@@H](O)[C@]4(CC[C@@](C)([C@H]5CC[C@](O)(CC)[C@H](C)O5)O4)O3)[C@H](C)C[C@@H]2C)[C@@H](C)C[C@@H]1C [Narasin]
IC20 (SK-N-Be2 cells [2]; [6]): 1000 nM

COc1cc([C@@H]2c3cc4c(cc3[C@H](O)[C@H]3COC(=O)[C@H]23)OCO4)cc(OC)c1OC [Podofilox]
IC20 (SK-N-Be2 cells [2]; [6]): 1000 nM

COc1cc(Nc2ncc3c(n2)-c2ccc(Cl)cc2C(c2c(F)cccc2OC)=NC3)ccc1C(=O)O [alisertib]
Histone H3 phosphorylation [3]: inhibit Histone H3 phosphorylation
reversion of the MR regulatory module / TCM (VIPER of PLATE-Seq) [5]: does not suppress the regulatory signature in the same way as isopomiferin

COc1cccc2c1C(=O)c1c(O)c3c(c(O)c1C2=O)C[C@@](O)(C(=O)CO)C[C@@H]3O[C@H]1C[C@H](N)[C@H](O)[C@H](C)O1 [doxorubicin]
reversion of the MR regulatory module / TCM (VIPER of PLATE-Seq) [5]: induced spurious effects

c1ccc2c(c1)Nc1ccccc1S2 [phenothiazine]
activity in NBL cells (cell viability) (SK-N-Be2 cells [2]; NBL cell lines, 48 hrs): inactive in NBL
reversion of the MR regulatory module / TCM (VIPER of PLATE-Seq) [5]: does not revert the signature

COc1ccc(-c2coc3c4c(c(CC=C(C)C)c(O)c3c2=O)OC(C)(C)C=C4)cc1OC [pomiferin dimethyl ether, 3-(3,4-dimethoxyphenyl)-5-hydroxy-8,8-dimethyl-6-(3-methylbut-2-en-1-yl)-4H,8H-pyrano[2,3-f]chromen-4-one]
inhibition of SK-N-Be2 cell viability (rank or activity in words) (SK-N-Be2 cells [2]; SK-N-Be2 cells, 72 hrs): inactivity at 20 μM
effect on the MYCN MR signature (VIPER of RNASeq) (MYCN MR signature): does not revert the MYCN signature; also recorded: did not
TEAD4 transcript (RNASeq) (TEAD4 transcript): did not affect either MYCN or TEAD4
MYCN transcript abundance (RNASeq) (MYCN transcript): did not affect either MYCN or TEAD4

CC(=O)Oc1ccc(-c2coc3c4c(c(CC=C(C)C)c(OC(C)=O)c3c2=O)OC(C)(C)C=C4)cc1OC(C)=O [pomiferin triacetate, 4-(5-acetoxy-8,8-dimethyl-6-(3-methylbut-2-en-1-yl)-4-oxo-4H,8H-pyrano[2,3-f]chromen-3-yl)-1,2-phenylene diacetate]
mTOR activity and general kinase inhibition (mTOR): can inhibit mTOR activity; also recorded: does not possess general kinase inhibition activity
